Laboratory results from patent publication EP0497921B1, “METHOD FOR INHIBITING ENZYMATIC SYNTHESIS OF NUCLEIC ACIDS USING ISOPSORALENS” (ISAACS, Stephen T., priority 1989, dated 1991).

What was measured:
calf thymus DNA = assay: Equilibrium dialysis, dark binding (association constant); details: for Ka: 4°C, five days, dark, isopsoralen:DNA base pair ratio 1:15
Protocol: Equilibrium Dialysis was used to determine the association ("dark binding") constants of AMIP, AMDMIP and MIP with calf thymus DNA. The tritium labelled isopsoralens were used for the experiment. The method was a modification of that of Isaacs et al. Biochemistry 16, 1058-1066 (1977).
Spectrapor 2 dialysis tubing (Spectrum) was pretreated by boiling in saturated sodium bicarbonate then rinsed thoroughly with double distilled water. Calf thymus DNA (Sigma) was prepared at a concentration of 50 µg/ml in 1 X TE. The samples were prepared by placing 1.0 ml of the DNA solution inside the bag and using enough isopsoralen to provide an isopsoralen:DNA base pair ratio of 1:15. The samples were prepared with the tritiated isopsoralen ("Drug") placed either inside or outside
of the dialysis bag (each sample was placed in a scintillation vial containing a small magnetic stir bar). The samples were stirred at 4°C for five days in the dark. After this period the bags were removed, opened, and the radioactivity inside and outside the bag determined by scintillation counting. The concentration of the DNA was determined by measuring optical density at 260 nm. The […] constant (Ka) was calculated from this information (Table 9). Preparing the samples in duplicate with the isopsoralen both inside and outside the dialysis bag provided a check that the system had come to equilibrium at the end of the dialysis period (the amount of isopsoralen inside and outside the bag at equilibrium should be, and was, the same in both cases).
The association constant, Ka is defined here as Ka = ([P:DNA])/([P] [DNA]) [formula] for the reaction P + DNA = P:DNA where p = free drug in solution, DNA = DNA binding site for the drug, and P:DNA = drug associated with the DNA. The following summarizes the Ka values determined for the compounds: […]

E. Coli DNA Polymerase = assay: Primer extension on site-specific 71-mer monoadduct template; type: biochemical; details: 37°C for 0, 5 or 15 minutes, PAGE, autoradiography
From the text: (§1) The sequences that are presented in Figure 26 describe several oligonucleotides that are used in the synthesis of either a normal 71-mer or the identical 71-mer containing a site-specifically placed psoralen or isopsoralen monoadduct. The 71-mer is a sub-sequence of the Human Immunodeficiency Virus (HIV) sequence. (An HIV DNA system is described in a co-pending application, Serial No. 225,725.) SK-39 is a primer oligonucleotide that is complementary to the 3' end of the 71-mers. This primer oligonucleotide can be extended on the 71-mer template to make a complementary strand of the 71-mer.
(§2) Preparation of 71-mers which contain site-specific monoadducts involves 1) preparation of different 15-mer monoadducts from the same unmodified 15-mer (HRI-42), and 2) ligation of the different 15-mer monoadducts to the same 56-mer "extender oligonucleotide" (HRI 102) using a 25-mer oligonucleotide (HRI-45) as a splint. The arrows in Figure 27 indicate the direction of synthesis, while the monoadduct is indicated by a short line that is perpendicular to the oligomer. While each of the 71-mer monoadducts contains the adduct at a base position that is greater than 56 bases from the 5' end, the precise position of the monoadduct is not meant to be indicated.
(§3) To prepare the 15-mer adducts, the 15-mer was incubated with a complementary 10-mer along with psoralen or isopsoralen under hybridization conditions. The mixture was then irradiated to provide the monoadducted 15-mer. While the invention is not dependent on knowing the precise mechanism of coupling, it has generally been believed that the 10-mer directs the isopsoralen to a single TpA site within the double-stranded helix formed by the 10-mer/15-mer hybrid. After isolation of an HPLC peak believed to contain the 15-mer with a single psoralen or isopsoralen monoadduct, these 15-mer monoadducts were ligated to a 56-mer extender in order to provide the monoadducted 71-mers for use as polymerase templates. The ligation reaction therefore utilized three oligonucleotides: the particular psoralen or isopsoralen monoadducted 15-mer, the 56-mer extender, and the 25-mer splint. The ligation complex was hybridized together then ligated. The ligated product was then isolated as a single band by denaturing PAGE.
(§4) To provide highly purified 71-mers which contain a single monoadduct, it was necessary to provide highly purified 15-mer monoadduct prior to the ligation step. This was accomplished by repurification of the HPLC purified monoadducted 15-mers by PAGE. In this way, essentially all the non-monoadducted 15-mer was removed prior to ligation. Separation of 15-mer monoadduct from unmodified 15-mer was readily accomplished by PAGE (while the same technique is not effective for separation of the corresponding unmodified 71-mer and monoadducted 71-mer sequences). In this manner, exceedingly pure monoadducted 71-mers were produced for the primer extension reactions; monoadducted 71-mers (as well as unmodified 71-mers) are used in template-dependent enzymatic extension experiments in examples 43-47 below.
(§5) In this experiment, monoadducted 71-mers (as well as unmodified 71-mers) were used in template-dependent enzymatic extension. AMIP, AMDMIP, and MIP 71-mer monoadducts were made as in Example 17. […] Note that the 3' end of the 71-mer (HRI 55) is complementary to the primer (SK-39) (see also Figure 26). Each of the extension experiments were run at 37°C for 0, 5 or 15 minutes. Each of the reactions were initiated by providing the templates and deoxyribonucleoside 5'-triphosphates (dATP, dGTP, dCTP, and dTTP are collective abbreviated as dNTPs), and by adding the particular polymerase last to start the reaction. For detection, the primer extension reaction utilized 5' ^32P-labelled primer. The reactions were stopped by adding EDTA. Analysis was by denaturing PAGE followed by autoradiography. […]

Klenow Polmerase = assay: as above; type: biochemical; details: 37°C for 0, 5 or 15 minutes, PAGE, autoradiography
From the text: as §1, §2, §3, §4, §5

Reverse Transcriptase = assay: as above; type: biochemical; details: 37°C for 0, 5 or 15 minutes, PAGE, autoradiography
From the text: as §1, §2, §3, §4, §5

T4 Polymerase = assay: as above; type: biochemical; details: 37°C for 0, 5 or 15 minutes, PAGE, autoradiography
From the text: as §1, §2, §3, §4, §5

[1] = tritiated drug placed inside dialysis bag
[2] = tritiated drug placed outside dialysis bag

E. Coli DNA Polymerase, sequence (P00582 whole entry): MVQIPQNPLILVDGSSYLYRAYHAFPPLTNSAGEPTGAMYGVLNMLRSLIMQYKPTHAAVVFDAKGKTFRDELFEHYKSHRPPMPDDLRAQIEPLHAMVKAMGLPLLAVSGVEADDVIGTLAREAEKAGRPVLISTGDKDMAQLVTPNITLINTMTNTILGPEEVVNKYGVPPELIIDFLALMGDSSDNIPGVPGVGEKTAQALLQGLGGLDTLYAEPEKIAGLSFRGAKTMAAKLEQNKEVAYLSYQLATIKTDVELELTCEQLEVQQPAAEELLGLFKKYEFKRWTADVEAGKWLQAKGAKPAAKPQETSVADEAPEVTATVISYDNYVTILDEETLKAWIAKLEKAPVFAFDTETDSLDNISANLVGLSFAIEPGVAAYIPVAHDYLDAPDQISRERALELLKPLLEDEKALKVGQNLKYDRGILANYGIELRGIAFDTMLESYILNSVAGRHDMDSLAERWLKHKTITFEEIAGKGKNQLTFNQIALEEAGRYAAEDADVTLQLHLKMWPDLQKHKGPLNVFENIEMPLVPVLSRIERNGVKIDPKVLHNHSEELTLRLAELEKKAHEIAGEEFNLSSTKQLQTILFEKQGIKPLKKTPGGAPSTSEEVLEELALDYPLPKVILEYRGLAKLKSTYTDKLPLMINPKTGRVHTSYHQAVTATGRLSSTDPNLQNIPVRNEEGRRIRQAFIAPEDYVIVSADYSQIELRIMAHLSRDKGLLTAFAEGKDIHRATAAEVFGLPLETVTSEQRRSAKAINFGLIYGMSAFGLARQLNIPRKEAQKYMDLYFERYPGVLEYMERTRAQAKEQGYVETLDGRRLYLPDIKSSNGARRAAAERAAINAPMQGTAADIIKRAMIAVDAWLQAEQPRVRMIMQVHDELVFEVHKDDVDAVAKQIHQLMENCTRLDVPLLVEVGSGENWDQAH

Compound | Ka (calf thymus DNA; [1]) | Ka (calf thymus DNA; [2]) | polymerase stop at adduct (primer extension) (E. Coli DNA Polymerase) | polymerase stop at adduct (primer extension) (Klenow Polmerase) | polymerase stop at adduct (primer extension) (Reverse Transcriptase) | polymerase stop at adduct (primer extension) (T4 Polymerase) | Ka relative to AMDMIP (calf thymus DNA; compared with AMDMIP)
4'-Aminomethyl-4,5'-dimethylisopsoralen [AMDMIP] | 7.66 x 10^4 | 1.07 x 10^5 | complete stop | complete stop | complete stop | complete stop | 
5-Aminomethylisopsoralen [AMIP] | 2.96 x 10^4 | 2.21 x 10^4 | not complete stops | not complete stops | complete stops | complete stops | 28%
Cc1cc2occc2c2oc(=O)ccc12 [MIP, 5-Methylisopsoralen] | 9.08 x 10^3 | 2.07 x 10^3 | not complete stops | not complete stops | complete stops | complete stops | 
